Test: Hematology assays in cynomolgus monkeys (Example 45)
Assay type: in vivo
Conditions: for MCH / MCHC / MCV / RBC count / WBC count / hematocrit / hemoglobin: escalating dose regimen
In short: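 Cynomolgus monkeys (2 male, 3 female per group) dosed subcutaneously with antisense oligonucleotide or PBS, escalating 5, 10, then 25 mg/kg two to three times weekly over 12 weeks; one chronic group held at 10 mg/kg from week 4. Blood sampled weekly; necropsy on day 85.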

ISIS 417002: MOE gapmer, nucleobases 1275 to 1318 of SEQ ID NO: 1 (Table 8) (antisense GGTGCACAGTTTCTGGCAGG; MOE gapmer, wing and gap sizes not given here)
MCH (Day 64): 22 pg
MCH (Day 71): 23 pg
MCH (Day 78): 23 pg
MCH (Day 85): 23 pg
basophils (day 8): 0.3%
eosinophils (day 8): 0.2%
lymphocytes (day 8): 50%
monocytes (day 8): 3.3%
neutrophils (day 8): 46%
platelet count (day 8): 435000 µL⁻¹
reticulocytes (day 8): 1.1%
MCH (day 8): 23 pg
MCHC (day 8): 29 g/dL
MCV (day 8): 79 fL
RBC count (day 8): 5.6e+06 µL⁻¹
WBC count (day 8): 10000 µL⁻¹
hematocrit (day 8): 44%
hemoglobin (day 8): 12.8 g/dL
basophils (day 15): 0.2%
eosinophils (day 15): 0.1%
lymphocytes (day 15): 40%
monocytes (day 15): 2.3%
neutrophils (day 15): 57%
platelet count (day 15): 410000 µL⁻¹
reticulocytes (day 15): 1.1%
MCH (day 15): 23 pg
MCHC (day 15): 31 g/dL
MCV (day 15): 76 fL
RBC count (day 15): 5.4e+06 µL⁻¹
WBC count (day 15): 10000 µL⁻¹
hematocrit (day 15): 40%
hemoglobin (day 15): 12.3 g/dL
basophils (day 22): 0.2%
eosinophils (day 22): 0.3%
lymphocytes (day 22): 41%
monocytes (day 22): 3.1%
neutrophils (day 22): 55%
platelet count (day 22): 377000 µL⁻¹
reticulocytes (day 22): 1.2%
MCH (day 22): 23 pg
MCHC (day 22): 29 g/dL
MCV (day 22): 79 fL
RBC count (day 22): 5.2e+06 µL⁻¹
WBC count (day 22): 10000 µL⁻¹
hematocrit (day 22): 41%
hemoglobin (day 22): 12.1 g/dL
basophils (day 29): 0.2%
eosinophils (day 29): 0.3%
lymphocytes (day 29): 50%
monocytes (day 29): 3.5%
neutrophils (day 29): 45%
platelet count (day 29): 410000 µL⁻¹
reticulocytes (day 29): 1.6%
MCH (day 29): 23 pg
MCHC (day 29): 29 g/dL
MCV (day 29): 81 fL
RBC count (day 29): 5.2e+06 µL⁻¹
WBC count (day 29): 10000 µL⁻¹
hematocrit (day 29): 42%
hemoglobin (day 29): 12.0 g/dL
basophils (day 36): 0.2%
eosinophils (day 36): 0.2%
lymphocytes (day 36): 35%
monocytes (day 36): 2.6%
neutrophils (day 36): 61%
platelet count (day 36): 415000 µL⁻¹
reticulocytes (day 36): 1.3%
MCH (day 36): 23 pg
MCHC (day 36): 30 g/dL
MCV (day 36): 78 fL
RBC count (day 36): 5.4e+06 µL⁻¹
WBC count (day 36): 11000 µL⁻¹
hematocrit (day 36): 42%
hemoglobin (day 36): 12.5 g/dL
basophils (day 43): 0.3%
eosinophils (day 43): 0.2%
lymphocytes (day 43): 39%
monocytes (day 43): 2.8%
neutrophils (day 43): 57%
platelet count (day 43): 393000 µL⁻¹
reticulocytes (day 43): 1.1%
MCH (day 43): 23 pg
MCHC (day 43): 30 g/dL
MCV (day 43): 77 fL
RBC count (day 43): 5.4e+06 µL⁻¹
WBC count (day 43): 10000 µL⁻¹
hematocrit (day 43): 41%
hemoglobin (day 43): 12.3 g/dL
basophils (day 50): 0.3%
eosinophils (day 50): 0.1%
lymphocytes (day 50): 34%
monocytes (day 50): 3.1%
neutrophils (day 50): 61%
platelet count (day 50): 389000 µL⁻¹
reticulocytes (day 50): 1.6%
MCH (day 50): 23 pg
MCHC (day 50): 29 g/dL
MCV (day 50): 80 fL
RBC count (day 50): 5.4e+06 µL⁻¹
WBC count (day 50): 13000 µL⁻¹
hematocrit (day 50): 43%
hemoglobin (day 50): 12.3 g/dL
basophils (day 57): 0.3%
eosinophils (day 57): 0.2%
lymphocytes (day 57): 40%
monocytes (day 57): 3.6%
neutrophils (day 57): 54%
platelet count (day 57): 403000 µL⁻¹
reticulocytes (day 57): 4.6%
MCH (day 57): 23 pg
MCHC (day 57): 29 g/dL
MCV (day 57): 80 fL
RBC count (day 57): 4.9e+06 µL⁻¹
WBC count (day 57): 12000 µL⁻¹
hematocrit (day 57): 38%
hemoglobin (day 57): 11.3 g/dL
basophils (day 64): 0.2%
eosinophils (day 64): 0.2%
lymphocytes (day 64): 39%
monocytes (day 64): 4.0%
neutrophils (day 64): 55%
platelet count (day 64): 436000 µL⁻¹
reticulocytes (day 64): 1.3%
MCHC (day 64): 30 g/dL
MCV (day 64): 76 fL
RBC count (day 64): 5.4e+06 µL⁻¹
WBC count (day 64): 11000 µL⁻¹
hematocrit (day 64): 41%
hemoglobin (day 64): 12.2 g/dL
basophils (day 71): 0.3%
eosinophils (day 71): 0.3%
lymphocytes (day 71): 59%
monocytes (day 71): 4.7%
neutrophils (day 71): 34%
platelet count (day 71): 490000 µL⁻¹
reticulocytes (day 71): 1.3%
MCHC (day 71): 29 g/dL
MCV (day 71): 78 fL
RBC count (day 71): 5.5e+06 µL⁻¹
WBC count (day 71): 12000 µL⁻¹
hematocrit (day 71): 43%
hemoglobin (day 71): 12.5 g/dL
basophils (day 78): 0.3%
eosinophils (day 78): 0.1%
lymphocytes (day 78): 41%
monocytes (day 78): 4.7%
neutrophils (day 78): 51%
platelet count (day 78): 432000 µL⁻¹
reticulocytes (day 78): 1.3%
MCHC (day 78): 31 g/dL
MCV (day 78): 75 fL
RBC count (day 78): 5.4e+06 µL⁻¹
WBC count (day 78): 9000 µL⁻¹
hematocrit (day 78): 40%
hemoglobin (day 78): 12.4 g/dL
basophils (day 85): 0.3%
eosinophils (day 85): 0.2%
lymphocytes (day 85): 56%
monocytes (day 85): 5.3%
neutrophils (day 85): 36%
platelet count (day 85): 418000 µL⁻¹
reticulocytes (day 85): 1.4%
MCHC (day 85): 30 g/dL
MCV (day 85): 76 fL
RBC count (day 85): 5.4e+06 µL⁻¹
WBC count (day 85): 10000 µL⁻¹
hematocrit (day 85): 41%
hemoglobin (day 85): 12.2 g/dL
basophils (day −5): 0.3%
eosinophils (day −5): 0.3%
lymphocytes (day −5): 53%
monocytes (day −5): 3.2%
neutrophils (day −5): 43%
platelet count (day −5): 466000 µL⁻¹
reticulocytes (day −5): 0.8%
MCH (day −5): 24 pg
MCHC (day −5): 30 g/dL
MCV (day −5): 80 fL
RBC count (day −5): 5.6e+06 µL⁻¹
WBC count (day −5): 14000 µL⁻¹
hematocrit (day −5): 45%
hemoglobin (day −5): 13.2 g/dL
basophils (day −14): 0.3%
eosinophils (day −14): 0.3%
lymphocytes (day −14): 53%
monocytes (day −14): 3.0%
neutrophils (day −14): 43%
platelet count (day −14): 442000 µL⁻¹
reticulocytes (day −14): 0.9%
MCH (day −14): 24 pg
MCHC (day −14): 30 g/dL
MCV (day −14): 79 fL
RBC count (day −14): 5.6e+06 µL⁻¹
WBC count (day −14): 13000 µL⁻¹
hematocrit (day −14): 44%
hemoglobin (day −14): 13.0 g/dL
